{
  "source": "patent US20110213038A1",
  "about": "“CONTROL OF BED BUGS” (priority 2008, published 2011)",
  "key": {"[1]": {"test_system": "adult bed bugs Cimex lectularius", "test": "Vapor exposure of unconcealed bed bugs in sealed jar, 24 hour mortality", "assay_type": "in vivo", "details": "one drop (about 25-30 mg) on filter paper in sealed 16 oz. glass jar", "description": "(§1) This test was undertaken employing unconcealed bed bugs. One drop (about 25-30 mg) of a naturally occurring aromatic test compound was applied to a filter paper and placed with a 16 oz. glass jar (3½ inches diameter×3⅞ inches high) containing ten adult bed bugs Cimex lectularius of both sexes. The jar was then sealed with a plastic lid. Five replicates of ten bed bugs were exposed to each of the test compounds. The test formulations were assessed for 24 hour mortality. A control jar with no test compound was also included in the testing.\nThe test was repeated with several other test compounds in the same manner: […]"}, "[2]": {"test_system": "adult bed bugs Cimex lectularius", "test": "Vapor exposure of concealed bed bugs (folded mattress ticking) in sealed jar, 72 hour mortality", "assay_type": "in vivo", "details": "one drop (about 25-30 mg) on filter paper in sealed 16 oz. glass jar", "description": "as §1, with “conducted using concealed” for “undertaken employing unconcealed”, “sexes. A piece of folded mattress ticking was also placed in the jar to allow the bed bugs a place to hide.” for “sexes.”, “Mortality was” for “The test formulations were”, “at 72 hours.” for “for 24 hour mortality.”, “testing. The mortality results were as follows.” for “testing.”"}, "[3]": {"details": "repeated test with other compounds"}},
  "data": [
    {"molecule": "C=C(C)[C@H]1CC=C(C)C(=O)C1", "note": "[d-Carvone]", "values": [
      {"measurement": "24 hr Mean Mortality %", "setting": "[1]; [3]", "result": 47.8, "unit": "%"}
    ]},
    {"molecule": "l-Carvone", "values": [
      {"measurement": "24 hr Mean Mortality %", "setting": "[1]; first test", "result": 73.5, "unit": "%"},
      {"measurement": "72 hr Mean Mortality %", "setting": "[2]", "result": 46.7, "unit": "%"}
    ]},
    {"molecule": "C=C[C@@](C)(O)CCC=C(C)C", "note": "[d-Linalool]", "values": [
      {"measurement": "24 hr Mean Mortality %", "setting": "[1]; [3]", "result": 92.0, "unit": "%"}
    ]},
    {"molecule": "CC(O)c1ccccc1", "note": "(stereo not shown) [Styralyl alcohol]", "values": [
      {"measurement": "24 hr Mean Mortality %", "setting": "[1]; [3]", "result": 89.8, "unit": "%"},
      {"measurement": "72 hr Mean Mortality %", "setting": "[2]", "result": 91.8, "unit": "%"}
    ]},
    {"molecule": "C=C[C@](C)(O)CCC=C(C)C", "note": "[l-Linalool]", "values": [
      {"measurement": "24 hr Mean Mortality %", "setting": "[1]; first test", "result": 100.0, "unit": "%"},
      {"measurement": "72 hr Mean Mortality %", "setting": "[2]", "result": 68, "unit": "%"}
    ]},
    {"molecule": "CC(C)[C@@H]1CC[C@@H](C)C(=O)C1", "note": "[Tetrahydrocarvone]", "values": [
      {"measurement": "24 hr Mean Mortality %", "setting": "[1]; [3]", "result": 58.1, "unit": "%"},
      {"measurement": "72 hr Mean Mortality %", "setting": "[2]", "result": 16.7, "unit": "%"}
    ]}
  ]
}
